# According to patent US7939526B2, “Sulfone substituted imidazo ring ethers” (3M Innovative Properties Company, priority 2003, dated 2011):
row,SMILES,melting point [°C]
1,"Cc1nc2c(N)nc3ccccc3c2n1CCOCCS(C)(=O)=O [Example 1, 2-Methyl-1-{2-[2-(methylsulfonyl)ethoxy]ethyl}-1H-imidazo[4,5-c]quinolin-4-amine]",214 to 217
2,"CCCc1nc2c(N)nc3ccccc3c2n1CCOCCS(C)(=O)=O [Example 4, 1-{2-[2-(Methylsulfonyl)ethoxy]ethyl}-2-propyl-1H-imidazo[4,5-c]quinolin-4-amine]",150 to 152
3,"CCc1nc2c(N)nc3ccccc3c2n1CCOCCS(C)(=O)=O [Example 5, 2-Ethyl-1-{2-[2-(methylsulfonyl)ethoxy]ethyl}-1H-imidazo[4,5-c]quinolin-4-amine]",160 to 163
4,"COCCc1nc2c(N)nc3ccccc3c2n1CCOCCS(C)(=O)=O [Example 7, 2-(2-Methoxyethyl)-1-{2-[2-(methylsulfonyl)ethoxy]ethyl}-1H-imidazo[4,5-c]quinolin-4-amine]",142 to 144
5,"CCOCc1nc2c(N)nc3ccccc3c2n1CC(C)(C)OCCS(=O)(=O)c1ccccc1 [Example 8, 2-Ethoxymethyl-1-{2-[2-(phenylsulfonyl)ethoxy]-2-methylpropyl}-1H-imidazo[4,5-c]quinolin-4-amine]",187 to 189
6,"CCCc1nc2c(N)nc3c(c2n1CCOCCS(C)(=O)=O)CCCC3 [Example 11, 1-{2-[2-(Methylsulfonyl)ethoxy]ethyl}-2-propyl-6,7,8,9-tetrahydro-1H-imidazo[4,5-c]quinolin-4-amine]",153 to 155
7,"CCCc1nc2c(N)nc3ccccc3c2n1CCOCCCS(=O)(=O)C(C)C [Example 14, 1-(2-{3-[(1-Methylethyl)sulfonyl]propoxy}ethyl)-2-propyl-1H-imidazo[4,5-c]quinolin-4-amine]",176 to 177
8,"CCCc1nc2c(N)nc3ccccc3c2n1CCOCCCSC [Example 17, 1-{2-[3-(Methylthio)propoxy]ethyl}-2-propyl-1H-imidazo[4,5-c]quinolin-4-amine]",99 to 101
9,CCCc1nc2c(N)nc3ccccc3c2n1CCOCCC[S+](C)[O-] (centres unmarked) [Example 18],148 to 151
10,"CCCCCCCCCCS(=O)(=O)CCCOCCn1c(CCC)nc2c(N)nc3ccccc3c21 [Example 20, 1-{2-[3-(Decane-1-sulfonyl)propoxy]ethyl}-2-propyl-1H-imidazo[4,5-c]quinolin-4-amine]",84 to 86
11,"Cc1nc2c(N)nc3ccccc3c2n1CC(C)(C)OCCS(C)(=O)=O [Example 21, 2-Methyl-1-{2-methyl-2-[2-(methylsulfonyl)ethoxy]propyl}-1H-imidazo[4,5-c]quinolin-4-amine]",253 to 255
12,"CCCc1nc2c(N)nc3ccccc3c2n1CC(C)(C)OCCS(C)(=O)=O [Example 22, 1-{2-Methyl-2-[2-(methylsulfonyl)ethoxy]propyl}-2-propyl-1H-imidazo[4,5-c]quinolin-4-amine]",203 to 206
13,"CCOCc1nc2c(N)nc3ccccc3c2n1CC1(OCCS(C)(=O)=O)CCCC1 [Example 23, 2-(Ethoxymethyl)-1-({1-[2-(methylsulfonyl)ethoxy]cyclopentyl}methyl)-1H-imidazo[4,5-c]quinolin-4-amine]",163 to 165
14,"CCCCCCc1nc2c(N)nc3ccccc3c2n1CCOCCS(C)(=O)=O [Example 25, 2-Hexyl-1-{2-[2-(methylsulfonyl)ethoxy]ethyl}-1H-imidazo[4,5-c]quinolin-4-amine]",158 to 160
15,"CCOCc1nc2c(N)nc3c(c2n1CC(C)(C)OCCS(C)(=O)=O)CCCC3 [Example 28, 2-(Ethoxymethyl)-1-{2-methyl-2-[2-(methylsulfonyl)ethoxy]propyl}-6,7,8,9-tetrahydro-1H-imidazo[4,5-c]quinolin-4-amine]",150 to 153
16,"Cc1nc2c(N)nc3c(c2n1CC(C)(C)OCCS(C)(=O)=O)CCCC3 [Example 30, 2-Methyl-1-{2-methyl-2-[2-(methylsulfonyl)ethoxy]propyl}-6,7,8,9-tetrahydro-1H-imidazo[4,5-c]quinolin-4-amine]",226 to 229
17,"CC(C)(Cn1cnc2c(N)nc3c(c21)CCCC3)OCCS(C)(=O)=O [Example 31, 1-{2-Methyl-2-[2-(methylsulfonyl)ethoxy]propyl}-6,7,8,9-tetrahydro-1H-imidazo[4,5-c]quinolin-4-amine]",219 to 223
18,"CCCCc1nc2c(N)nc3ccccc3c2n1CC(C)(C)OCCS(C)(=O)=O [Example 32, 2-Butyl-1-{2-methyl-2-[2-(methylsulfonyl)ethoxy]propyl}-1H-imidazo[4,5-c]quinolin-4-amine]",196 to 198
19,"CCCCc1nc2c(N)nc3c(c2n1CC(C)(C)OCCS(C)(=O)=O)CCCC3 [Example 33, 2-Butyl-1-{2-methyl-2-[2-(methylsulfonyl)ethoxy]propyl}-6,7,8,9-tetrahydro-1H-imidazo[4,5-c]quinolin-4-amine]",146 to 148
20,"CCc1nc2c(N)nc3c(c2n1CC(C)(C)OCCS(C)(=O)=O)CCCC3 [Example 37, 2-Ethyl-1-{2-methyl-2-[2-(methylsulfonyl)ethoxy]propyl}-6,7,8,9-tetrahydro-1H-imidazo[4,5-c]quinolin-4-amine]",225 to 227

# Next, values leading:
row,melting point [°C],SMILES
1,168 to 170,"CCCCc1nc2c(N)nc3ccccc3c2n1CCOCCS(C)(=O)=O [Example 2, 2-Butyl-1-{2-[2-(methylsulfonyl)ethoxy]ethyl}-1H-imidazo[4,5-c]quinolin-4-amine]"
2,145 to 148,"CS(=O)(=O)CCOCCn1cnc2c(N)nc3ccccc3c21 [Example 3, 1-{2-[2-(Methylsulfonyl)ethoxy]ethyl}-1H-imidazo[4,5-c]quinolin-4-amine]"
3,158 to 160,"CCOCc1nc2c(N)nc3ccccc3c2n1CCOCCS(C)(=O)=O [Example 6, 2-(Ethoxymethyl)-1-{2-[2-(methylsulfonyl)ethoxy]ethyl}-1H-imidazo[4,5-c]quinolin-4-amine]"
4,183 to 185,"CCOCc1nc2c(N)nc3ccccc3c2n1CC(C)(C)OCCS(C)(=O)=O [Example 9, 2-Ethoxymethyl-1-{2-[2-(methylsulfonyl)ethoxy]-2-methylpropyl}-1H-imidazo[4,5-c]quinolin-4-amine]"
5,173 to 175,"Cc1nc2c(N)nc3c(c2n1CCOCCS(C)(=O)=O)CCCC3 [Example 10, 1-{2-[2-(Methylsulfonyl)ethoxy]ethyl}-2-methyl-6,7,8,9-tetrahydro-1H-imidazo[4,5-c]quinolin-4-amine]"
6,146 to 148,"CCc1nc2c(N)nc3c(c2n1CCOCCS(C)(=O)=O)CCCC3 [Example 12, 2-Ethyl-1-{2-[2-(methylsulfonyl)ethoxy]ethyl}-6,7,8,9-tetrahydro-1H-imidazo[4,5-c]quinolin-4-amine]"
7,160 to 161,"CCCc1nc2c(N)nc3ccccc3c2n1CCOCCCS(=O)(=O)c1ccccc1 [Example 13, 1-{2-[3-(Phenylsulfonyl)propoxy]ethyl}-2-propyl-1H-imidazo[4,5-c]quinolin-4-amine]"
8,159 to 160,"CCCc1nc2c(N)nc3ccccc3c2n1CCOCCCS(=O)(=O)c1ccccc1C [Example 15, 1-(2-{3-[(2-Methylphenyl)sulfonyl]propoxy}ethyl)-2-propyl-1H-imidazo[4,5-c]quinolin-4-amine]"
9,150 to 151,"CCCc1nc2c(N)nc3ccccc3c2n1CCOCCCS(=O)(=O)c1ccccn1 [Example 16, 2-Propyl-1-(2-{3-[(pyridin-2-yl)sulfonyl]propoxy}ethyl)-1H-imidazo[4,5-c]quinolin-4-amine]"
10,149 to 151,"CCCc1nc2c(N)nc3ccccc3c2n1CCOCCCS(C)(=O)=O [Example 19, 1-{2-[3-(Methylsulfonyl)propoxy]ethyl}-2-propyl-1H-imidazo[4,5-c]quinolin-4-amine]"
11,159 to 161,"CCOCc1nc2c(N)nc3ccccc3c2n1CC1(OCCS(C)(=O)=O)CCCCC1 [Example 24, 2-(Ethoxymethyl)-1-({1-[2-(methylsulfonyl)ethoxy]cyclohexyl}methyl)-1H-imidazo[4,5-c]quinolin-4-amine]"
12,221 to 223,"CCOCc1nc2c(N)nc3ccccc3c2n1CC1(OCCS(C)(=O)=O)CCC1 [Example 26, 2-(Ethoxymethyl)-1-({1-[2-(methylsulfonyl)ethoxy]cyclobutyl}methyl)-1H-imidazo[4,5-c]quinolin-4-amine]"
13,186 to 188,"CCOCc1nc2c(N)nc3c(c2n1CC1(OCCS(C)(=O)=O)CCC1)CCCC3 [Example 27, 2-(Ethoxymethyl)-1-({1-[2-(methylsulfonyl)ethoxy]cyclobutyl}methyl)-6,7,8,9-tetrahydro-1H-imidazo[4,5-c]quinolin-4-amine]"
14,261 to 264,"CC(C)(Cn1cnc2c(N)nc3ccccc3c21)OCCS(C)(=O)=O [Example 29, 1-{2-Methyl-2-[2-(methylsulfonyl)ethoxy]propyl}-1H-imidazo[4,5-c]quinolin-4-amine]"
15,169 to 171,"CCOCc1nc2c(N)nc3ccccc3c2n1CC1(OCCS(C)(=O)=O)CC1 [Example 34, 2-(Ethoxymethyl)-1-({1-[2-(methylsulfonyl)ethoxy]cyclopropyl}methyl)-1H-imidazo[4,5-c]quinolin-4-amine]"
16,188 to 190,"CCCc1nc2c(N)nc3c(c2n1CC(C)(C)OCCS(C)(=O)=O)CCCC3 [Example 35, 1-{2-Methyl-2-[2-(methylsulfonyl)ethoxy]propyl}-2-propyl-6,7,8,9-tetrahydro-1H-imidazo[4,5-c]quinolin-4-amine]"
17,206 to 209,"CCc1nc2c(N)nc3ccccc3c2n1CC(C)(C)OCCS(C)(=O)=O [Example 36, 2-Ethyl-1-{2-methyl-2-[2-(methylsulfonyl)ethoxy]propyl}-1H-imidazo[4,5-c]quinolin-4-amine]"
18,186 to 189,"COCc1nc2c(N)nc3ccccc3c2n1CC(C)(C)OCCS(C)(=O)=O [Example 38, 2-(Methoxymethyl)-1-{2-methyl-2-[2-(methylsulfonyl)ethoxy]propyl}-1H-imidazo[4,5-c]quinolin-4-amine]"
